Results published in PubChem BioAssay AID504344 (Broad Institute, 2011).
Activity calls are given as the source filed them.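 How the source made its calls: active means fitted curve reaches 10% of the positive control caspase activation at or below the top valid tested dose; inactive means signal shifts the opposite way, plus the rest.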

Test system: Bax/Bak-/- MEF caspase activation, CaspaseGlo luminescence, 3 h
Assay: caspase activation in Bax/Bak-null MEFs, dose response, counter-screen for Bcl2-A1 inhibitor project, cell-based, mouse embryonic fibroblasts, dry powder, set 2 (AID 504344)
Settings: not given

Structure (SMILES) | AC10
Cc1ccc(Sc2c([N+](=O)[O-])c(=O)oc3ccccc23)cc1 | > 35 µM (inactive)

Test system: not listed separately
Assay: as above
Settings: Bax/Bak-/- MEF caspase activation, CaspaseGlo luminescence, 3 h; at 35 µM (top of the series)

Structure (SMILES) | caspase activation
Cn1c(=O)c([N+](=O)[O-])c(Nc2ccc(Cl)cc2)c2ccccc21 | 0.654% (inactive)
CCOCCCNc1c([N+](=O)[O-])c(=O)n(C)c2ccccc12 | 0.166% (inactive)
Cc1ccc(Sc2c([N+](=O)[O-])c(=O)n(C)c3ccccc23)cc1 | 1.18% (inactive)
Cc1ccc(Sc2cc(=O)n(C)c3ccccc23)cc1 | -0.817% (inactive)
O=c1oc2ccccc2c(Sc2ccccc2)c1[N+](=O)[O-] | -0.438% (inactive)
O=c1oc2ccccc2c(N2CCCCC2)c1[N+](=O)[O-] | -0.245% (inactive)
Cn1c(=O)c([N+](=O)[O-])c(-n2cnc3ccccc32)c2ccccc21 | 0.662% (inactive)
O=c1oc2ccccc2c(Cl)c1[N+](=O)[O-] | -0.981% (inactive)
Cc1ccc(Sc2c([N+](=O)[O-])cnc3ccccc23)cc1 | 3.45% (inactive)
Cc1ccc(Nc2c([N+](=O)[O-])c(=O)oc3ccccc23)cc1 | -0.021% (inactive)
O=c1oc2ccccc2c(Nc2cc(Cl)cc(Cl)c2)c1[N+](=O)[O-] | -0.079% (inactive)
CN1C(=O)C(C)(C)N(Cc2ccccc2)c2ccccc21 | -0.187% (inactive)
Cn1c(=O)c([N+](=O)[O-])c(Cl)c2ccccc21 | 0.515% (inactive)
CCSc1c([N+](=O)[O-])c(=O)oc2ccccc12 | 0.365% (inactive)
O=[N+]([O-])c1cnc2ccccc2c1Sc1ccccc1 | 2.51% (inactive)
O=C(Oc1cccc(/C=N/Nc2nc(Nc3ccccc3)nc(N3CCOCC3)n2)c1)c1ccco1 | 0.026% (inactive)
CCOC(=O)N1CCN(c2c([N+](=O)[O-])c(=O)n(C)c3ccccc23)CC1 | -0.062% (inactive)
Cc1ccc(Nc2c([N+](=O)[O-])c(=O)n(C)c3ccccc23)cc1 | 0.3% (inactive)
C/C1=C/C(=O)O[C@@H]2C[C@@H](CC[C@H](C)/C=C\CC1)O[C@@](O)(C1CSC(=O)N1)C2 (stereo partly specified) | 0.173% (inactive)
Cn1c(=O)c([N+](=O)[O-])c(Oc2ccccc2)c2ccccc21 | 0.272% (inactive)
